The text below walks through data of patent US12227517B2, “Pyridazinyl-thiazolecarboxamide compound” (Astellas Pharma Inc., priority 2019, dated 2025).

Broadly, the IC50 is the point on the concentration scale where inhibition reaches its midpoint.

Structures are written as SMILES. Counter-ions that a name gives are not always drawn.

One experiment relates to B16-F1 cells. The experiment in a line: Antitumor effect in syngeneic mouse model bearing mouse melanoma cell line B16-F1. The following applies: relative tumor growth inhibition, B16-F1, oral. The experiment is classed as in vivo. How it is done:
Test Example 4: Evaluation of Antitumor Effect in Syngeneic Mouse Model Bearing Mouse Melanoma Cell Line B16-F1
A cell suspension liquid prepared by suspending B16-F1 cells (ATCC, CRL-6323) in PBS at 2.0×10^6 cells/mL or 1.0×10^7 cells/mL was subcutaneously inoculated into 5-week-old female mice (C57BL/6J from Charles River Laboratories Japan, Inc.) in a volume of 50 μL. 5 days after the inoculation, the mice were grouped in such a manner that there was substantially no difference in tumor volume between groups, and administration of the test compound was started. The test was conducted with a solvent group and a test compound administration group each having 10 mice. 0.5% methylcellulose was orally administered to the solvent group, and 0.5% methylcellulose mixed with the test compound was orally administered to the test compound administration group. The administration was performed according to the regimen described in Table 4, and the tumor diameter and the body weight were measured twice a week. The following expression was used for calculation of the tumor volume. [tumor volume (mm^3)]=[tumor major diameter (mm)]×[tumor minor diameter (mm)]^2×0.5
The relative tumor growth inhibition (%) of the test compound was calculated, where the tumor volume of the test compound administration group immediately before the start of administration was set to 100% inhibition, and the tumor volume of the solvent group on the day after the last administration was set to 0% inhibition. […] In the table, Ex represents the number of each Example described below.

The next experiment concerns Jurkat E6.1 cells. The experiment in a line: Evaluation of IL-2 production in human T cell leukemia cell line Jurkat E6.1 (TCR stimulation anti-CD3/anti-CD28). The experiment is classed as cell-based. The note with it: concentration at which IL-2 increased to 10 times the solvent control, Jurkat E6.1, anti-CD3/anti-CD28, 24 hours, read-out: EC10fold. How it is done:
Test Example 2: Evaluation of IL-2 Production in Human T Cell Leukemia Cell Line Jurkat E6.1
The effect of the test compound on the IL-2 production by T cell receptor (TCR) stimulation (anti-CD3/anti-CD28) in Jurkat E6.1 cells (ECACC, 88042803) was evaluated.
A 5 μg/mL anti-CD3 antibody (eBioscience, Inc., OKT3 clone) diluted with phosphate buffer saline (PBS) was added to a 96-well plate (Iwaki & Co., Ltd.) at 50 μL/well, and left standing at 4° C. for 12 hours or more to provide an anti-CD3 antibody-coated plate in advance. When the plate was used for experiments, the plate was washed with 200 μL of PBS once, an anti-CD28 antibody (eBioscience, Inc., 28.2 clone) diluted to a concentration of […] with a culture medium (RPMI1640 (Sigma-Aldrich Co. LLC.) containing 10% fetal bovine serum (Hyclone Laboratories, Inc.)) was then added at 10 μL/well, and the plate was used for assay as a culture plate for TCR stimulation.
Subsequently, the test compound was mixed with Jurkat E6.1 cells in such a manner that an intended final concentration was obtained, and the mixture was plated at 90 μL/well so that the number of cells per well was 1×10^5 (that is, finally the culture was performed at 1×10^5 cells/100 μL/well). For culture cell conditions, the culture was performed at 37° C. in the presence of 5% CO2 using RPMI1640 medium containing 10% fatal bovine serum.
After 24 hours, the culture supernatant was collected, and IL-2 was quantitatively determined using AlphaLISA human IL2 Immunoassay Research Kit (PerkinElmer, Inc.). The IL-2 measurement was performed under Alpha Screen standard setting conditions (the fluorescence intensity at 570 nm was measured with an excitation wavelength of 680 nm) using EnVision 2104-0010 and EnVision 2104-0020 (PerkinElmer, Inc.). The IL-2 quantitative value of the solvent treatment control was set to 1, and the test compound concentration at which the IL-2 quantitative value of the test compound treatment sample increased to 10 times the IL-2 quantitative value of the control (EC10fold) was calculated by inverse estimation with the aid of Sigmoid-Emax model non-linear regression analysis. […] In the table, Ex represents the number of each Example described below.

In the next experiment the target is human recombinant DGK ξ (Homo sapiens (Human), UniProt Q13574). The experiment in a line: Evaluation of DGK ξ inhibitory effect (ADP-Glo Kinase Assay). In kind it is biochemical. How it is done: Test Example 1: Evaluation of DGK ξ Inhibitory Effect
The inhibitory effect of a test compound on human recombinant DGK ξ (Carna Biosciences, Inc., 12-410-20N) was examined by the following method in which detection is performed with ADP-Glo™ Kinase Assay (Promega Corporation).
To a 384-well plate (Greiner Bio-One Co., Ltd.), 3 μL of a […] dissolved in an assay buffer (40 mM Tris-HCl pH 7.5, 10 mM MgCl2, 1 mM dithiothreitol (DTT) and 0.1 mg/mL bovine serum albumin (BSA)) (90 ng/mL) was added, and 3 μL of the test compound diluted with the same assay buffer was added so that an intended final concentration was obtained. The mixture was left standing at room temperature for 15 minutes, 3 μL of a substrate (150 μM 1-oleoyl-2-acetyl-sn-glycerol (Sigma-Aldrich Co. LLC.), 480 μM phosphatidylserine (Avanti Polar Lipids, Inc.) and 150 μM UltraPure-ATP (attached to ADP-Glo)) was then added, and the mixture was left standing at room temperature for 30 minutes to react. Thereafter, 3 μL of an ADP-Glo Reagent was added, and the mixture was left standing at room temperature for 40 minutes to stop the enzyme reaction. Further, 6 μL of a Kinase-Detection Reagent was added, the mixture was left standing at room temperature for 30 minutes, and the luminescence was then measured using ARVO X3 (PerkinElmer, Inc.). The half maximal inhibitory concentration (IC50) was calculated by Sigmoid-Emax model non-linear regression analysis, where the signal value in solvent treatment was set to 0% inhibition and the signal value without addition of the DGK ξ enzyme was set to 100% inhibition. […] In the table, Ex represents the number of each Example described below. Also, in the table, compound C (cpd. C) represents the test compound of the Example 199 described in the international publication WO 2008/054702.
For orientation: In ADP-Glo the light output rises with the ADP produced.

In the next experiment the test system is MC38 cells. Kind of experiment: Antitumor effect in syngeneic mouse model bearing mouse colon adenocarcinoma cell line MC38. In kind it is in vivo. The following applies: relative tumor growth inhibition, MC38, C57BL/6J mice, oral, twice a day day 1-10 and once on day 11. How it is done:
Test Example 3: Evaluation of Antitumor Effect in Syngeneic Mouse Model Bearing Mouse Colon Adenocarcinoma Cell Line MC38
A cell suspension liquid prepared by suspending MC38 cells (supplied from National Cancer Institute) in PBS at 4.0×10^6 cells/mL was subcutaneously inoculated into 6-week-old female mice (C57BL/6J from Charles River Laboratories Japan, Inc.) in a volume of 50 μL. 4 days after the inoculation, the mice were grouped in such a manner that there was substantially no difference in tumor volume between groups, and administration of the test compound was started. The test was conducted with a solvent group and a test compound administration group each having 10 mice. 0.5% methylcellulose (Shin-Etsu Chemical Co., Ltd.) was orally administered to the solvent group, and 0.5% methylcellulose mixed with the test compound was orally administered to the test compound administration group. The administration was performed twice a day from day 1 to day 10 and once a day on day 11, and the tumor diameter and the body weight were measured twice a week. The following expression was used for calculation of the tumor volume. [tumor volume (mm^3)]=[tumor major diameter (mm)]×[tumor minor diameter (mm)]^2×0.5
The relative tumor growth inhibition (%) of the test compound was calculated, where the tumor volume of the test compound administration group immediately before the start of administration was set to 100% inhibition, and the tumor volume of the solvent group on the last day of administration was set to 0% inhibition. […] In the table, Ex represents the number of each Example described below.

The mark [1] stands for this setting: 0.1 mg/kg, 1/day, 8 days, 1 × 10^5 cells inoculated.

Chain of human recombinant DGK ξ (Q13574 whole entry): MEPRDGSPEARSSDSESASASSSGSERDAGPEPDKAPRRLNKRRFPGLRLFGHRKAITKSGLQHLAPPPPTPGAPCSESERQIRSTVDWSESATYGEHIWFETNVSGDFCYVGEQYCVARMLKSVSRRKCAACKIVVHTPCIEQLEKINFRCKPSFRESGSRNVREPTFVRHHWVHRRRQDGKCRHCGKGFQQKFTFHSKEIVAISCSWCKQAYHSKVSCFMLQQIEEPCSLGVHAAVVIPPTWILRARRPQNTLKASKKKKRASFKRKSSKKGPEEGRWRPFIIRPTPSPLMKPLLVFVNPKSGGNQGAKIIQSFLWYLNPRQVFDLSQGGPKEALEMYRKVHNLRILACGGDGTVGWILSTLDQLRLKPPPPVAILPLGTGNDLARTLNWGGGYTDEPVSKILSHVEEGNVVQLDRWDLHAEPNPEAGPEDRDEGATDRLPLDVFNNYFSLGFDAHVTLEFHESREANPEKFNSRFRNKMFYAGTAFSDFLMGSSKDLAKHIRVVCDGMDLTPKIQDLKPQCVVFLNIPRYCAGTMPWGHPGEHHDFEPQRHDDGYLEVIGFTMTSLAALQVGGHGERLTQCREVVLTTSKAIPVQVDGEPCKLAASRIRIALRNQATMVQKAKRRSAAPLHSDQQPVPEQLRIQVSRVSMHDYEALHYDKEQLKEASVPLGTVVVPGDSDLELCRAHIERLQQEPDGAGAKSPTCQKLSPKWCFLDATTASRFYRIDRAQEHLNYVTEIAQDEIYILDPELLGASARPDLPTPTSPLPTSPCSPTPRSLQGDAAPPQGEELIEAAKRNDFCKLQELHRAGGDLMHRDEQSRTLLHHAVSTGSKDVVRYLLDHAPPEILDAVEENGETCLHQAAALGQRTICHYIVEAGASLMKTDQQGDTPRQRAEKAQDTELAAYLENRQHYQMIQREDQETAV

`COCCN1CCC2(CC1)CN(c1c(NC(=O)c3csc(-c4ccnnc4)n3)ccc(Oc3ccccc3)c1C(F)(F)F)CCO2` [Example 59, N-{2-[9-(2-methoxyethyl)-1-oxa-4,9-diazaspiro[5.5]undecan-4-yl]-4-phenoxy-3-(trifluoromethyl)phenyl}-2-(pyridazin-4-yl)-1,3-thiazole-4-carboxamide dihydrochloride]: the Antitumor effect with B16-F1 cells (setting [1]) is 46% Inhibition. Moreover, in the experiment with Jurkat E6.1 cells, the EC50 is 36 nM. For the same molecule, the IC50 on human recombinant DGK ξ is 2 nM.
For the molecule `NC[C@@H]1CCCN(c2c(NC(=O)c3csc(-c4ccnnc4)n3)ccc(Oc3ccccc3F)c2C(F)(F)F)C1` [Example 33], the Antitumor effect in the experiment with MC38 cells (5 mg/kg) turned out to be 36% Inhibition. In addition, the EC50 in the experiment on Jurkat E6.1 cells is 9 nM. Also, the IC50 at human recombinant DGK ξ is 5 nM.
Regarding `NC[C@@H]1CCCN(c2c(NC(=O)c3csc(-c4ccnnc4)n3)ccc(Oc3ccccc3)c2C(F)(F)F)C1` [Example 9, N-{2-[(3S)-3-(aminomethyl)piperidin-1-yl]-4-phenoxy-3-(trifluoromethyl)phenyl}-2-(pyridazin-4-yl)-1,3-thiazole-4-carboxamide], the Antitumor effect came out at 36% Inhibition with B16-F1 cells (0.5 mg/kg, 2/day, 10 days, 5 × 10^5 cells inoculated) and 64% Inhibition in the experiment with MC38 cells (5 mg/kg). For the same molecule, the EC50 in the experiment with Jurkat E6.1 cells turned out to be 18 nM. The IC50 at human recombinant DGK ξ came out at 8 nM.
In the experiment on B16-F1 cells (0.03 mg/kg, 1/day, 10 days, 1 × 10^5 cells inoculated), `CN(C)[C@@H]1CCN2CCN(c3c(NC(=O)c4csc(-c5ccnnc5)n4)ccc(Oc4ccccc4)c3C(F)(F)F)C[C@@H]12` [Example 80] showed an Antitumor effect of 30% Inhibition. In addition, in the experiment with Jurkat E6.1 cells, the EC50 was 5 nM. On human recombinant DGK ξ, the IC50 turned out to be 0.7 nM.
Regarding `NC[C@@H]1CCCN(c2c(NC(=O)c3csc(-c4ccnnc4)n3)ccc(Oc3cccc(F)c3)c2C(F)(F)F)C1` [Example 11], the Antitumor effect in the experiment with MC38 cells (5 mg/kg) is reported as 63% Inhibition. The EC50 with Jurkat E6.1 cells amounted to 32 nM. Besides, on human recombinant DGK ξ, the IC50 was found to be 19 nM.
On to `N[C@@H]1CCN2CCN(c3c(NC(=O)c4csc(-c5ccnnc5)n4)ccc(Oc4ccccc4)c3C(F)(F)F)C[C@@H]12` [Example 78, N-{2-[(8R,8aS)-8-aminohexahydropyrrolo[1,2-a]pyrazine-2(1H)-yl]-4-phenoxy-3-(trifluoromethyl)phenyl}-2-(pyridazin-4-yl)-1,3-thiazole-4-carboxamide], for which the Antitumor effect in the experiment with B16-F1 cells (0.3 mg/kg, 1/day, 10 days, 1 × 10^5 cells inoculated) worked out at 30% Inhibition. Moreover, in the experiment with Jurkat E6.1 cells, the EC50 is 27 nM. Also, the IC50 at human recombinant DGK ξ amounted to 5 nM.
Regarding `NC[C@H]1CCCN1c1c(NC(=O)c2csc(-c3ccnnc3)n2)ccc(Oc2ccccc2)c1C(F)(F)F` [Example 34], the Antitumor effect is reported as 48% Inhibition with B16-F1 cells (1.5 mg/kg, 2/day, 10 days, 5 × 10^5 cells inoculated) and 55% Inhibition in the experiment with MC38 cells (5 mg/kg). In addition, the EC50 in the experiment on Jurkat E6.1 cells stood at 30 nM. Moreover, at human recombinant DGK ξ, the IC50 stood at 12 nM.
With `CNC[C@@H]1CCCN(c2c(NC(=O)c3csc(-c4ccnnc4)n3)ccc(Oc3ccccc3F)c2C(F)(F)F)C1.Cl` [Example 10], the Antitumor effect was 42% Inhibition in the experiment on B16-F1 cells (setting [1]) and 60% Inhibition in the experiment with MC38 cells (4.7 mg/kg). In addition, the EC50 with Jurkat E6.1 cells is 173 nM. For the same molecule, the IC50 on human recombinant DGK ξ came out at 8 nM.
